Test results reported in US20090054507A1, “CONTROL OF MALIGNANT CELLS BY KINASE INHIBITION” (CLEVELAND STATE UNIVERSITY, priority 2006, published 2009).

Columns and labels:
[1] = test system: MEG-01 cells; experiment: RPE-CD41a (αIIbβ3 integrin) flow cytometric immunophenotyping, maturation of MEG-01; type: cell-based, human; details: 10 μM DMAT vs control untreated
Method: Flow cytometric analysis. Cells were analyzed using a FACSCalibur flow cytofluorometer (Becton-Dickinson), with CellQuestPro ver. 3.3 software. The data was further analyzed with FlowJo ver. 6.2, and WinMDI 2.8 software. Proper gating was performed to characterize each cell population (MEG-01 cells and platelets). The population that corresponds to platelets (small, granulated particles), is PI negative because thrombocytes are anucleated cells (only the viable cells were considered) and were distinguished by their capacity to become activated, undergoing shape change in response to agonist and to show phosphatidylserine (PS) exposure when activated. Platelets were further separated from the megakaryocytic cells, by differential centrifugation, considering the size difference between these cell populations (1-5 μm for platelets and 35-150 μm for megakaryocytic cell line MEG-01) and analyzed separately. Voltage and channels settings were adjusted accordingly. Analyzed values were obtained with WinMDI ver. 2.8.
RPE-CD41a immunophenotyping of MEG-01 cells. CD41a is the antigen for αIIbβ3 complex and it is found on platelets and platelet precursors, including MEG-01 cell line. αIIbβ3 complex is a marker of differentiation for megakaryocytes. […] Cells were counted and adjusted to 10^6 cells/ml and 20 μl of RPE-CD41a was used for 180 μl cell suspension. […]

[2] = test system: MEG-01 cells; experiment: Thrombocytopoiesis / proplatelet formation by microscopy; type: cell-based, human
Method: Light microscopy (phase contrast) and DAPI fluorescence microscopy. High quality pictures and live imaging were obtained at Cleveland Clinic Imaging Core (Cleveland, Ohio). DAPI staining of cultured MEG-01 cells was performed with fresh cells. For live imaging (observing a single cell for a 24 hour period of time) of the thrombocytopoiesis process, MEG-01 suspension cells were made adherent by using Fibronectin (FN) coated culture dishes. FN was used, at 5 μg/cm^2 and incubated at 37° C. for 1 h, as recommended by the supplier (BD Biosciences, Bedford, Mass., USA).
Scanning electron microscopy (SEM). Cell preparation and pictures were performed at the Microscopy Core Facility (Cleveland Clinic). Cells were grown for 4 days in the presence of 10 μM DMAT and then collected by differential centrifugation. Cells were fixed in glutaraldehyde and then further processed at the Core. The clot was prepared with platelets collected from MEG-01 cultures treated with 10 μM DMAT. Human thrombin 0.5 U/ml for 15 minutes was used to activate them.

[3] = test system: platelets from MEG-01 cells; experiment: Function assays of platelets released from treated MEG-01 cells; type: cell-based, human
Method: Platelets isolation from culture. Platelets were separated from the megakaryocytic cells, by differential centrifugation and analyzed separately. Suspension cells were centrifuged first at 100 g-150 g for 15 minutes, and then the platelets rich supernatant was kept and centrifuged again at 800 g for 15 minutes. For impeding artefactual aggregation of platelets in the control, EDTA and RGD or RGDS were added in the cell suspension from the beginning of the centrifugations, and with each centrifugation step. 1 mg/ml RGD or RGDS and 10 mM EDTA final concentrations, were used for negative control (inactivated) or resting platelets. Platelets were activated with different agonists: 100 nM PMA, 1 μg/ml TRAP and 0.5 U/ml human a-thrombin. For most of assays TRAP 1 μg/ml was used. For scanning electron microscopy experiment (formation of the fibrin clot) human a-thrombin was used. For both sample sets, activated (with TRAP) and inactivated (EDTA, RGD), platelets collected from MEG-01 cultures incubated with 10 μM DMAT for 4 days were utilized.
PAC-I-FITC binding due to platelet activation flow cytometric assay. Monoclonal antibody PAC-1 recognizes an epitope on the glycoprotein αIIbβ3 of activated platelets. […]
Fibrinogen-Alexa Fluor 488 binding to platelets flow cytometric assay. […] Final concentration of fibrinogen conjugated to Alexa Fluor 488 was determined spectrophotometrically. […]

[4] = test system: MEG-01 tumors; experiment: Hematoxylin & eosin staining of MEG-01 tumors; type: in vivo, mice; parameters: dose or concentration left out as unconfirmed; details: DMAT treated vs control
Method: Hematoxylin & eosin staining of tumor tissue and organs. After euthanasia with CO2, mice were supposed to necropsy. Tumors were collected from under the skin from both flanks and were measured for the last time and then fixed in formalin fixative. Spleen, liver, kidney, brain, lungs and legs were collected and fixed. Spleens were also measured (as length, […]). Fresh tissue was immersed immediately into liquid nitrogen and kept frozen at −80° C. Fixed tissue was embedded in paraffin and next processed for H&E (the basic dye hematoxylin, and the alcohol-based synthetic material, eosin) by the Cleveland Clinic Histology Core facility. Sections (4-μm thick) were stained with hematoxylin and eosin and evaluated for pathologic changes in a blinded fashion. H&E staining gives morphological information (vascularization, normal proliferating tissue, necrosis and apoptosis of the tissue).

`CN(C)c1nc2c(Br)c(Br)c(Br)c(Br)c2[nH]1` [DMAT, 2-dimethylamino-4,5,6,7-tetrabromo-1H-benzimidazole] was tested, and the “maturation level (αIIbβ3 integrin expression, RPE-CD41a)” value [1] was “significant maturation levels”, the thrombocytopoiesis [2] was “induced thrombocytopoiesis” and the proplatelet formation ([2]; 10 μM DMAT, as early as from the second day) was “form proplatelet extensions”. For the same molecule, the “fibrin clot formation by platelets from treated MEG-01 cells” value ([3]; DMAT 10 μM at 72 hours, human thrombin 0.5 U/ml) was “form a fibrin clot”, the “function of platelets obtained from treated MEG-01 cells” value ([3]; response to human thrombin 0.5 U/ml) was “functional” and the “apoptotic-necrotic areas in tumors (hematoxylin and eosin)” value [4] was “significantly greater areas of apoptosis and necrosis”.
